Patent US20140099385A1, “INHIBITION OF FATTY ACID AND C[…] BY CARBON MONOXIDE (CO)” (priority 2011, published 2014)

Key:
[1] = 25° C.; cited from earlier work
PGRMC1 = PGRMC1 (Homo sapiens, UniProt O00264); assay: Absorption spectrum of the PGRMC1 protein (CO binding to heme); conditions: FIG. 3
Source text: FIG. 3 is the graphs showing the absorption spectrum of the PGRMC1 protein.
Furthermore, PGRMC1 (Progesterone Receptor Membrane associated Component 1) was identified as one of the molecules involved with the inhibition of fatty acid or cholesterol uptake by CO. PGRMC1 is a heme binding protein, and an absorption peak is thought to have appeared at 419 nm because CO bound to the heme of PGRMC1 (FIG. 3). […] Thus, when the PGRMC1 gene was knocked down in a cell, the uptake of a fatty acid was suppressed (FIG. 4).

HuH7 cell [2] = assay: LDL uptake inhibition in a cell by CO (FITC-conjugated LDL, fluorescence microscope); format: cell-based, human; conditions: FITC-conjugated LDL 8 mg/ml, 1 μM CO—Ru, 2 hours, FIG. 2
Method: After culturing the HuH7 cell in the same manner as above in a dish covered with a slide glass, the medium was discarded, and fluorescence-labeled FITC-conjugated LDL (Molecular Probes) was added to serum free DMEM so as to give the final concentration of 8 mg/ml to carry out the culture for 2 hours (control). Additionally, at the same time with this procedure, 1 μM of CO—Ru was added in the same manner as above to carry out the analysis. After culturing, the medium was discarded, the cell was washed 3 times with PBS and DAPI reagent (2 ng/ml; Wako Pure Chemical Industries, Ltd.) was added to react for 5 minutes. The observation was carried out using a fluorescence microscope, whereby FITC-LDL derived Green fluorescence as the […] and DAPI derived Blue fluorescence were detected. […] On the other hand, in the cell to which CO—Ru was added, the margin of blue stained area is not stained green.

[3] = system: human hepatoma cell line HuH7 cell; assay: Stearic acid uptake inhibition in a cell by CO (Nile Red staining, fluorescence microscope); format: cell-based; conditions: 400 μM stearic acid, 1 μM test substance, 12 hours, FIG. 1
Method: The human hepatoma cell line HuH7 cell was seeded in a 6-well plate (Iwaki) covered with a slide glass (1 cm^2; matsunami glass) and cultured using DMEM+10% FCS in a CO2 incubator overnight. After the culture, the medium was discarded, 1% BSA (Wako Pure Chemical Industries, Ltd.) wherein stearic acid (sigma) was dissolved in serum free DMEM to give a final concentration of 400 μM was added thereto, and the cell was cultured again for 12 hours in a CO2 incubator. Further, as a CO sustained-release drug, 1 μM of CO—Ru (Sigma CORM2 ([Ru(CO)3Cl2]2)) was used) or 1 μM of ruthenium complex as a control was added together with a fatty acid to carry out the culture. Subsequently, the medium was discarded, the cell was washed 3 times with PBS, and Nile Red reagent (sigma) dissolved in PBS on the slide glass so as to be 100 ng/ml was added to react for 5 minutes, thereby staining the fatty acid. Further, the cell was washed 3 times with PBS, DAPI reagent (2 ng/ml; Wako Pure Chemical Industries, Ltd.) was added to react for 5 minutes, thereby staining the nucleus. The nucleus was observed using a fluorescence microscope, whereby Nile Red derived Green fluorescence as the fatty acid and DAPI derived Blue fluorescence were detected. […]

HuH7 cell [4] = assay: Stearic acid and palmitic acid uptake in a cell wherein the PGRMC1 gene is knocked down by siRNA; format: cell-based, human; conditions: HuH7 cell transfected with siRNA
Method: In the experiment of Example 1, siRNA (sequence: […]) (SEQ ID NO: 1) targeting PGRMC1 was transfected to the cell line HuH7 cell derived from human hepatocellular carcinoma by the lipofection method (Lipofectamin 2000, INVITROGEN Corporation) to knockdown the PGMRMC1 gene. In the same manner as in Example 1, 1% BSA (Wako Pure Chemical Industries, Ltd.) wherein stearic acid (sigma) or palmitic acid was dissolved to give the final concentration of 400 μM was added to the HuH7 cell wherein the PGRMC1 gene was knocked down, and the cell was cultured. The medium was discarded, the cell was washed 3 times with PBS, and Nile Red reagent (sigma) dissolved in PBS on the slide glass so as to be 100 ng/ml was added to react for 5 minutes, thereby staining the fatty acid. Further, the cell was washed 3 times with PBS, DAPI reagent (2 ng/ml; Wako Pure Chemical Industries, Ltd.) was added to react for 5 minutes, thereby staining the nucleus. The nucleus was observed using a fluorescence microscope, whereby Nile Red derived Green fluorescence as the fatty acid and DAPI derived Blue fluorescence were detected. […] On the other hand, when palmitic acid (FIG. 4C) or stearic acid (FIG. 4D) was added to the cell wherein the PGRMC1 gene was knocked down, the margin of blue stained area is not stained green.

Sequence of PGRMC1 (O00264 whole entry, species assumed): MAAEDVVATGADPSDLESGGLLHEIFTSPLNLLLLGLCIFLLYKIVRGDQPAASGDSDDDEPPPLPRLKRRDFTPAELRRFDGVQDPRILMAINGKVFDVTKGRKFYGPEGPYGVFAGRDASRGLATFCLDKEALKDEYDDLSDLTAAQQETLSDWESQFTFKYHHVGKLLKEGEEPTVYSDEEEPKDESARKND

[C-]#[O+] [CO, carbon monoxide]
amount of CO that can be dissolved in aqueous solution [1]: about 21.4 mL per liter | absorption peak on CO binding to the heme of PGRMC1 (PGRMC1): 419 nm

[C-]#[O+].[C-]#[O+].[C-]#[O+].[C-]#[O+].[C-]#[O+].[C-]#[O+].[Cl][Ru][Cl].[Cl][Ru][Cl] [CO—Ru, [Ru(CO)3Cl2]2]
uptake of LDL in the cell (FITC-LDL green fluorescence) (HuH7 cell [2]): the uptake of LDL was inhibited | uptake of stearic acid in the cell (green Nile Red staining) [3]: the uptake of stearic acid was inhibited

siRNA: siRNA (sequence: GAUGUGACCAAAGGCCCGCAAAUUCU) targeting PGRMC1 (listed as RNA, chemistry not given here)
uptake of palmitic acid in the PGRMC1 knockdown cell (HuH7 cell [4]; 400 μM palmitic acid, FIG. 4C): inhibited | uptake of stearic acid in the PGRMC1 knockdown cell (HuH7 cell [4]; 400 μM stearic acid, FIG. 4D): inhibited
